Results: the supplement of paper PMC5908809

What was measured:
[1] = system: IMC-1 (IL-2 20 ng/mL); assay: percent inhibition of viability; higher = more inhibition; conditions: 72 h
[2] = system: YT (IL-2 2.5 ng/mL); assay: as above; conditions: 72 h
[3] = system: NK-92 (IL-2 2.5 ng/mL); assay: as above; conditions: 72 h
[4] = system: normal primary NK cells, pool 3 (3 donors) (IL-2 2.5 ng/mL); assay: as above; conditions: 72 h
[5] = system: DERL-7 (IL-2 2.5 ng/mL); assay: as above; conditions: 72 h
[6] = system: NK-YS (IL-2 2.5 ng/mL); assay: as above; conditions: 72 h
[7] = system: normal primary NK cells, pool 1 (3 donors), resting (IL-2 0 ng/mL); assay: as above; conditions: 72 h
[8] = system: SNK-6 (IL-2 2.5 ng/mL); assay: as above; conditions: 72 h
[9] = system: KHYG-1 (IL-2 2.5 ng/mL); assay: as above; conditions: 72 h
[10] = system: normal primary NK cells, pool 1 (3 donors) (IL-2 2.5 ng/mL); assay: as above; conditions: 72 h
[11] = system: normal primary NK cells, pool 2 (3 donors) (IL-2 2.5 ng/mL); assay: as above; conditions: 72 h
[12] = system: KAI3 (IL-2 2.5 ng/mL); assay: as above; conditions: 72 h
[13] = system: NKL (IL-2 2.5 ng/mL); assay: as above; conditions: 72 h
[14] = system: normal NK cells expanded with K562-aAPC; assay: drug sensitivity score (DSS) (DSS units); higher = more sensitive; extreme values may be limits of the assay; conditions: 72 h; IL-2 2.5 ng/mL
Method: (§1)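 Drug sensitivity and resistance testing on K562-aAPC-expanded normal NK cells: 5 concentrations (10-fold steps over a 10,000-fold range), 72 h at 37 °C, viability by CellTiter-Glo normalised to DMSO and benzethonium chloride controls; DSS from the fitted curve.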

[15] = system: IMC-1 (IL-2 20 ng/mL); assay: as above; conditions: 72 h
[16] = system: YT (IL-2 2.5 ng/mL); assay: as above; conditions: 72 h
[17] = system: NK-92 (IL-2 2.5 ng/mL); assay: as above; conditions: 72 h
[18] = system: normal primary NK cells, pool 3 (3 donors) (IL-2 2.5 ng/mL); assay: as above; conditions: 72 h
[19] = system: DERL-7 (IL-2 2.5 ng/mL); assay: as above; conditions: 72 h
[20] = system: NK-YS (IL-2 2.5 ng/mL); assay: as above; conditions: 72 h
[21] = system: normal primary NK cells, pool 1 (3 donors), resting (IL-2 0 ng/mL); assay: as above; conditions: 72 h
[22] = system: SNK-6 (IL-2 2.5 ng/mL); assay: as above; conditions: 72 h
[23] = system: KHYG-1 (IL-2 2.5 ng/mL); assay: as above; conditions: 72 h
[24] = system: normal primary NK cells, pool 1 (3 donors) (IL-2 2.5 ng/mL); assay: as above; conditions: 72 h
[25] = system: normal primary NK cells, pool 2 (3 donors) (IL-2 2.5 ng/mL); assay: as above; conditions: 72 h
[26] = system: KAI3 (IL-2 2.5 ng/mL); assay: as above; conditions: 72 h
[27] = system: NKL (IL-2 2.5 ng/mL); assay: as above; conditions: 72 h
[28] = system: normal NK cells expanded with K562-aAPC; assay: percent inhibition of viability; higher = more inhibition; conditions: 72 h, IL-2 2.5 ng/mL
Method: as §1

CC[C@@]1(O)C(=O)OCc2c1cc1n(c2=O)Cc2cc3c(CN(C)C)c(O)ccc3nc2-1 [Topotecan] (max concentration tested 10000 nM)
percent inhibition of viability [%]
Conditions | 1 nM | 10 nM | 100 nM | 1000 nM | 10000 nM
[1] | -3.93 | 2.9 | 98.1 | 99.6 | 100
[2] | -6.41 | 1.19 | 83.4 | 102 | 105
[3] | -7.93 | 14.4 | 98 | 102 | 105
[4] | -3.05 | 6.63 | 20.6 | 31.7 | 84.1
[5] | -5.89 | 8.74 | 69.9 | 96.4 | 100
[6] | -4.31 | 2.83 | 91.2 | 94.4 | 104
[7] | -1.44 | 14.8 | 4.57 | 2.84 | 73.8
[8] | -7.26 | -5.12 | 93 | 96.6 | 99.4
[9] | -8.76 | -0.99 | 98 | 104 | 104
[10] | -0.98 | 18.9 | 12.2 | 42.5 | 84.4
[11] | -7.25 | 5.21 | 15.2 | 31.4 | 85.2
[12] | -7.96 | 6.65 | 82.9 | 69.8 | 100
[13] | -16.1 | 0.22 | 95.8 | 101 | 97.5
[28] | -4.37 | 0.95 | 51.7 | 58.8 | 99.9

Conditions | drug sensitivity score
[14] | 18.3
[15] | 30.6
[16] | 27.7
[17] | 32.8
[18] | 9.14
[19] | 26.9
[20] | 29.2
[21] | 4.46
[22] | 29
[23] | 30.1
[24] | 10.3
[25] | 8.28
[26] | 28.5
[27] | 29.9

CN(C)Cc1ccc(S(=O)(=O)n2ccc(/C=C/C(=O)NO)c2)cc1 [Resminostat] (max concentration tested 10000 nM)
percent inhibition of viability [%]
Conditions | 1 nM | 10 nM | 100 nM | 1000 nM | 10000 nM
[1] | -6.01 | -4.89 | -2.77 | -7.01 | 101
[2] | -1.93 | -2.18 | 2.96 | 27.7 | 105
[3] | -4.22 | -5.89 | 2.76 | 72.4 | 104
[4] | -1.68 | 4.21 | 3.8 | 20.1 | 98.5
[5] | 2.49 | 1.77 | -10 | 47.9 | 101
[6] | -6.67 | -3.77 | 2.32 | 34.2 | 103
[7] | -6.63 | 11.2 | 20.3 | 73.7 | 89.4
[8] | 11.1 | 1.11 | 5.35 | 56.6 | 101
[9] | -5.72 | -0.43 | 1.19 | 68.5 | 106
[10] | 2.24 | 11.9 | 12.7 | 57.5 | 98.9
[11] | -6.44 | 4.91 | 8.82 | 42 | 97.4
[12] | 1.92 | 3.59 | 28.4 | 71.5 | 104
[13] | 10.2 | 0.52 | 26.1 | 80.8 | 106
[28] | -4.58 | -2.4 | -0.88 | 36.9 | 101

Conditions | drug sensitivity score
[14] | 10.6
[15] | 5.11
[16] | 9.67
[17] | 14.1
[18] | 8.68
[19] | 11.5
[20] | 10.3
[21] | 16.1
[22] | 12.3
[23] | 13.4
[24] | 13
[25] | 10.2
[26] | 17.1
[27] | 18.2
